In patent US11130778B2, “CD73 inhibitors” (ORIC Pharmaceuticals, Inc., priority 2019, dated 2021):

Target: T1, CD73 (Homo sapiens, UniProt P21589)
T1 sequence (P21589 27-549): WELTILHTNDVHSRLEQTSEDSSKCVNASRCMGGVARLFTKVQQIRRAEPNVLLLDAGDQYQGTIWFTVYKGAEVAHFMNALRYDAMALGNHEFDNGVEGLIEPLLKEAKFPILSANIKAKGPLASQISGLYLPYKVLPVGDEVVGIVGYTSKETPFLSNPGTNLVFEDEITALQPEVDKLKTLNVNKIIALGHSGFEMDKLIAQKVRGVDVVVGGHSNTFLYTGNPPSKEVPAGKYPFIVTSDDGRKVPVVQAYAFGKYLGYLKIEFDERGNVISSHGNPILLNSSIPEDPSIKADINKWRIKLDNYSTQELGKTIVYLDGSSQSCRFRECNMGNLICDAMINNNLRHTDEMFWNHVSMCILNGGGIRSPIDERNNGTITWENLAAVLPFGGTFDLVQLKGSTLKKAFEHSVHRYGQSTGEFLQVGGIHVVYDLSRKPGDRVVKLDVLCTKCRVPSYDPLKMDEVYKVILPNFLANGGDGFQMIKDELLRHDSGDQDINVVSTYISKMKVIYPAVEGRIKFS
Test: Biochemical assay of CD73 inhibition (Malachite Green)
Conditions: CD73 0.3208 nM, AMP 15 μM, Tris-HCl pH 7.4, Malachite Green absorbance readout; read-out: CD73_Biochem
Protocol: Example A1: Biochemical Assay
Assay Reaction Conditions
• Assay Volume: 70 μl • Reaction Volume: 50 μl • CD73: 0.3208 nM • AMP:15 μM • Assay Buffer: 2 5 mM Tris-HCL, pH 7.4, 0.01% Brij-35, 0.01% BSA, 5 mM MgCl2 Assay Procedure:
Made dose titration of testing compounds in assay buffer, 10 points 1/2 log titrations in duplicates starting at 100 μM.
Added 25 µl of CD73 to each well for a final concentration of […].
Incubated at RT for 15 min.
Added 25 µl of AMP to each well for a final concentration of 15 μM.
Incubated at RT for 10 min.
Added […] of Malachite Green Reagent A, incubate at RT for 10 min.
Added […] of Malachite Green Reagent B, incubate at RT for 45 min.
Read the Absorbance on Envision plate reader using excitation filter: Cy5 […].
The ability of the compounds disclosed herein to inhibit CD73 activity was quantified and the respective IC50 values were determined. Table 2 provides the biochemical IC50 values of compounds disclosed herein.

SMILES	IC50
O=P(O)(O)C(CO)(CCc1nnn[nH]1)OC[C@H]1O[C@@H](n2ncc3c(NC4CCCC4)nc(Cl)nc32)[C@H](O)[C@@H]1O (stereo partly drawn) [Example 18, (2-(((2R,3S,4R,5R)-5-(6-chloro-4-(cyclopentylamino)-1H-pyrazolo[3,4-d]pyrirnidin-1-yl)-3,4-dihydroxytetrahydrofuran-2-yl)methoxy)-1-hydroxy-4-(1H-tetrazol-5-yl)butan-2-yl)phosphonic acid]	≤ 10 nM
O=P(O)(O)[C@](CO)(Cc1nn[nH]n1)OC[C@H]1O[C@@H](n2ncc3c(NCC4CCC4)nc(Cl)nc32)[C@H](O)[C@@H]1O [Example 19, ((S)-2-(((2R,3S,4R,5R)-5-(6-chloro-4-((cyclobutylmethyl)amino)-1H-pyrazolo[3,4-d]pyrimidin-1-yl)-3,4-dihydroxytetrahydrofuran-2-yl)methoxy)-1-hydroxy-3-(2H-tetrazol-5-yl)propan-2-yl)phosphonic acid]	≤ 10 nM
O=P(O)(O)[C@@](CO)(Cc1nn[nH]n1)OC[C@H]1O[C@@H](n2ncc3c(NCC4CCC4)nc(Cl)nc32)[C@H](O)[C@@H]1O [Example 20, ((R)-2-(((2R,3S,4R,5R)-5-(6-chloro-4-((cyclobutylmethyl)amino)-1H-pyrazolo[3,4-d]pyrimidin-1-yl)-3,4-dihydroxytetrahydrofuran-2-yl)methoxy)-1-hydroxy-3-(2H-tetrazol-5-yl)propan-2-yl)phosphonic acid]	10 to 100 nM
O=P(O)(O)[C@](CO)(COCc1nn[nH]n1)OC[C@H]1O[C@@H](n2ncc3c(NCC4CC4)nc(Cl)nc32)[C@H](O)[C@@H]1O [Example 21, ((R)-1-((2H-tetrazol-5-yl)methoxy)-2-(((2R,3S,4R,5R)-5-(6-chloro-4-((cyclopropylmethyl)amino)-1H-pyrazolo[3,4-d]pyrimidin-1-yl)-3,4-dihydroxytetrahydrofuran-2-yl)methoxy)-3-hydroxypropan-2-yl)phosphonic acid]	≤ 10 nM
COCC(CC(=O)NS(=O)(=O)N(C)C)(OC[C@H]1O[C@@H](n2ncc3c(NC4CCCC4)nc(Cl)nc32)[C@H](O)[C@@H]1O)P(=O)(O)O (stereo partly drawn) [Example 22, (2-(((2R,3S,4R,5R)-5-(6-chloro-4-(cyclopentylamino)-1H-pyrazolo[3,4-d]pyrimidin-1-yl)-3,4-dihydroxytetrahydrofuran-2-yl)methoxy)-4-((N,N-dimethylsulfamoyl)amino)-1-methoxy-4-oxobutan-2-yl)phosphonic acid]	≤ 10 nM
COCC(Cc1nn[nH]n1)(OC[C@H]1O[C@@H](n2ncc3c(NC(C)C)nc(Cl)nc32)[C@H](O)[C@@H]1O)P(=O)(O)O (stereo partly drawn) [Example 23, (2-(((2R,3S,4R,5R)-5-(6-chloro-4-(isopropylamino)-1H-pyrazolo[3,4-d]pyrimidin-1-yl)-3,4-dihydroxytetrahydrofuran-2-yl)methoxy)-1-methoxy-3-(2H-tetrazol-5-yl)propan-2-yl)phosphonic acid]	≤ 10 nM
O=P(O)(O)[C@](CO)(COCc1nn[nH]n1)OC[C@H]1O[C@@H](n2ncc3c(NC4CCCC4)nc(Cl)nc32)[C@H](O)[C@@H]1O [Example 24, ((R)-1-((2H-tetrazol-5-yl)methoxy)-2-(((2R,3S,4R,5R)-5-(6-chloro-4-(cyclopentylamino)-1H-pyrazolo[3,4-d]pyrimidin-1-yl)-3,4-dihydroxytetrahydrofuran-2-yl)methoxy)-3-hydroxypropan-2-yl)phosphonic acid]	≤ 10 nM
O=P(O)(O)[C@@](CO)(COCc1nn[nH]n1)OC[C@H]1O[C@@H](n2ncc3c(NC4CCCC4)nc(Cl)nc32)[C@H](O)[C@@H]1O [Example 25, ((S)-1-((2H-tetrazol-5-yl)methoxy)-2-(((2R,3S,4R,5R)-5-(6-chloro-4-(cyclopentylamino)-1H-pyrazolo[3,4-d]pyrimidin-1-yl)-3,4-dihydroxytetrahydrofuran-2-yl)methoxy)-3-hydroxypropan-2-yl)phosphonic acid]	≤ 10 nM
O=c1[nH]c(C[C@@](CO)(OC[C@H]2O[C@@H](n3ncc4c(NC5CCCC5)nc(Cl)nc43)[C@H](O)[C@@H]2O)P(=O)(O)O)no1 [Example 26, ((R)-2-(((2R,3S,4R,5R)-5-(6-chloro-4-(cyclopentylamino)-1H-pyrazolo[3,4-d]pyrimidin-1-yl)-3,4-dihydroxytetrahydrofuran-2-yl)methoxy)-1-hydroxy-3-(5-oxo-4,5-dihydro-1,2,4-oxadiazol-3-yl)propan-2-yl)phosphonic acid]	≤ 10 nM
O=c1[nH]c(C[C@](CO)(OC[C@H]2O[C@@H](n3ncc4c(NC5CCCC5)nc(Cl)nc43)[C@H](O)[C@@H]2O)P(=O)(O)O)no1 [Example 27, ((S)-2-(((2R,3S,4R,5R)-5-(6-chloro-4-(cyclopentylamino)-1H-pyrazolo[3,4-d]pyrimidin-1-yl)-3,4-dihydroxytetrahydrofuran-2-yl)methoxy)-1-hydroxy-3-(5-oxo-4,5-dihydro-1,2,4-oxadiazol-3-yl)propan-2-yl)phosphonic acid]	≤ 10 nM

Next, values leading:

IC50	SMILES
10 to 100 nM	CC(C)Nc1nc(Cl)nc2c1cnn2[C@@H]1O[C@H](CO[C@@](CO)(Cc2nn[nH]n2)P(=O)(O)O)[C@@H](O)[C@H]1O [Example 28, ((S)-2-(((2R,3S,4R,5R)-5-(6-chloro-4-(isopropylamino)-1H-pyrazolo[3,4-d]pyrimidin-1-yl)-3,4-dihydroxytetrahydrofuran-2-yl)methoxy)-1-hydroxy-3-(2H-tetrazol-5-yl)propan-2-yl)phosphonic acid]
≤ 10 nM	CC(C)Nc1nc(Cl)nc2c1cnn2[C@@H]1O[C@H](CO[C@](CO)(Cc2nn[nH]n2)P(=O)(O)O)[C@@H](O)[C@H]1O [Example 29, ((R)-2-(((2R,3S,4R,5R)-5-(6-chloro-4-(isopropylamino)-1H-pyrazolo[3,4-d]pyrimidin-1-yl)-3,4-dihydroxytetrahydrofuran-2-yl)methoxy)-1-hydroxy-3-(2H-tetrazol-5-yl)propan-2-yl)phosphonic acid]
10 to 100 nM	COC[C@@](Cc1nn[nH]n1)(OC[C@H]1O[C@@H](n2ncc3c(NC(C)C)nc(Cl)nc32)[C@H](O)[C@@H]1O)P(=O)(O)O [Example 30, ((S)-2-(((2R,3S,4R,5R)-5-(6-chloro-4-(isopropylamino)-1H-pyrazolo[3,4-d]pyrimidin-1-yl)-3,4-dihydroxytetrahydrofuran-2-yl)methoxy)-1-methoxy-3-(2H-tetrazol-5-yl)propan-2-yl)phosphonic acid]
≤ 10 nM	COC[C@](Cc1nn[nH]n1)(OC[C@H]1O[C@@H](n2ncc3c(NC(C)C)nc(Cl)nc32)[C@H](O)[C@@H]1O)P(=O)(O)O [Example 31, ((R)-2-(((2R,3S,4R,5R)-5-(6-chloro-4-(isopropylamino)-1H-pyrazolo[3,4-d]pyrimidin-1-yl)-3,4-dihydroxytetrahydrofuran-2-yl)methoxy)-1-methoxy-3-(2H-tetrazol-5-yl)propan-2-yl)phosphonic acid]
10 to 100 nM	CC(C)CNc1nc(Cl)nc2c1cnn2[C@@H]1O[C@H](CO[C@@](CO)(Cc2nn[nH]n2)P(=O)(O)O)[C@@H](O)[C@H]1O [Example 32, ((S)-2-(((2R,3S,4R,5R)-5-(6-chloro-4-(isobutylamino)-1H-pyrazolo[3,4-d]pyrimidin-1-yl)-3,4-dihydroxytetrahydrofuran-2-yl)methoxy)-1-hydroxy-3-(2H-tetrazol-5-yl)propan-2-yl)phosphonic acid]
